Laboratory results taken from BindingDB's records for doi:10.1021/jm010992z (Pharmazeutisches Institut Der Universität Freiburg, 2002).

Tests used:
[1] = biological target: Sodium-dependent dopamine transporter (Rattus norvegicus) (UniProt P23977); assay: The compound was tested for inhibition of dopamine reuptake
[2] = Sigma opioid receptor type 2 affinity in rat liver by employing [3H]ditolylguanidine as radioligand
[3] = Sigma opioid receptor type 1 affinity in guinea pig brain by employing [3H](+)-pentazocine as radioligand.

Chain of Sodium-dependent dopamine transporter (Rattus norvegicus) (P23977 whole entry, looked up): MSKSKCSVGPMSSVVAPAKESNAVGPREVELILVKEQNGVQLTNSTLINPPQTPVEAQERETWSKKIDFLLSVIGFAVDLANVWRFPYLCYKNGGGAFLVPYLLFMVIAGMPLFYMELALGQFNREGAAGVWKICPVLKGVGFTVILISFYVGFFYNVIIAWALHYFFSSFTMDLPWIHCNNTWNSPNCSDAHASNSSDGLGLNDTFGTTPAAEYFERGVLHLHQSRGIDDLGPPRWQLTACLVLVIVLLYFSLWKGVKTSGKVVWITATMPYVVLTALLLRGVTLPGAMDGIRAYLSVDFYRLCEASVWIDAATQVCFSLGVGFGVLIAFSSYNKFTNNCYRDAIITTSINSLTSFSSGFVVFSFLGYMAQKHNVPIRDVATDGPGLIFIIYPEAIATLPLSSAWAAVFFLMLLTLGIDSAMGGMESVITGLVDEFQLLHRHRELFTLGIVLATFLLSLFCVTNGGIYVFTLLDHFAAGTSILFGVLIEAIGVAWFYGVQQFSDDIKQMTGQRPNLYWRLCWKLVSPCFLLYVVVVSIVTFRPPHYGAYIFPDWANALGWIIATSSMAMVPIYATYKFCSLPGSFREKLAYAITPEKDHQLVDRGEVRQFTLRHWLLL

SMILES | IC50 [1] | Ki [2] | Ki [3]
COC1Cc2ccccc2C2(CCN(CCCc3ccccc3)CC2)O1 (stereo not given) | 1600 nM |  | 
COC1OC2(CCN(Cc3ccccc3)CC2)c2ccccc21 (stereo not given) [1'-benzyl-3-methoxyspiro[1,3-dihydroisobenzofuran-1,4'-(hexahydropyridine)]] | > 10000 nM |  | 
OC1Cc2ccccc2C2(CCN(CCc3ccccc3)CC2)O1 (stereo not given) [1'-phenethylspiro[3,4-dihydro-1H-isochromene-1,4'-(hexahydropyridine)]-3-ol] |  | 107 nM | 44 nM
COC1Cc2ccccc2C2(CCN(CCCCc3ccccc3)CC2)O1 (stereo not given) [1-[3-methoxyspiro[3,4-dihydro-1H-isochromene-1,4'-(hexahydropyridine)]-1-yl]-4-phenylbutane] |  | 311 nM | 10 nM
COC1Cc2ccccc2C2(CCN(C/C=C/c3ccccc3)CC2)O1 (stereo not given) [3-[3-methoxyspiro[3,4-dihydro-1H-isochromene-1,4'-(hexahydropyridine)]-1-yl]-1-phenyl-(E)-1-propene] |  | 4000 nM | 13 nM
COC1Cc2ccccc2C2(CCN(C)CC2)O1 (stereo not given) [3-methoxy-1'-methylspiro[3,4-dihydro-1H-isochromene-1,4'-(hexahydropyridine)]] |  | > 10000 nM | 4400 nM
